{"source": "patent US7319090B2", "about": "“Methods of treating cerebral ischemia” (University of North Carolina at Chapel Hill, priority 2002, dated 2008)", "assay_type_in_all_cases": "in vivo, rat", "key": {"Sprague-Dawley rats [1]": {"tested_on": "Sprague-Dawley rats", "assay": "Metabolism and heat loss in a direct calorimeter after NT77", "details": "5.0 mg/kg i.p.; data not shown", "description": "Oxygen consumption and dry heat loss were measured in naive rats implanted with radiotransmitters and housed in a direct calorimeter. The internal dimensions of the calorimeter were 30.5 cm×30.5 cm×30.5 cm. The calorimeter was used to measure the rate of dry heat loss (i.e., thermal conductance) from the rats using thermoelectric sensors in the calorimeter walls. The calorimeter was housed inside a temperature-controlled chamber maintained at 23.5° C. The inside of the calorimeter was dimly illuminated with LED lights (total power=0.2 Watts). […]\nA mass flow controller was used to meter dry air at a constant flow rate (2.7 liters/minute; STP) into the calorimeter. […] Percent oxygen, dry heat loss, air flow rate, and calorimeter temperature were monitored at 1 minute intervals by a data acquisition system (Dianachart PC acquisitor). […] (W/C) was calculated by dividing the value of dry heat loss at 1 minute intervals by the difference between core and ambient temperature. […]\nA naive rat was placed in the wire-mesh cage which was then placed inside the calorimeter at approximately 9 a.m. […] After 115 minutes, the percent oxygen of the inflowing air was measured for another 5 minutes for calibration purposes but the rat was not disturbed. […]"}, "Sprague-Dawley rats [2]": {"tested_on": "Sprague-Dawley rats", "assay": "Behavioral thermoregulation in a temperature gradient (selected Ta, core temperature, motor activity) after NT77", "description": "Male rats of the Sprague-Dawley strain at 60 days of age were obtained from Charles River Laboratories (Raleigh, N.C.). The animals were housed individually in acrylic cages lined with wood shavings at an ambient temperature (Ta) of 22° C., relative humidity of 50%, and a 12 hour light:12 hour dark photoperiod (lights were turned on at 6 a.m. and turned off at 6 p.m.). Core temperature and motor activity were monitored in undisturbed rats using radio telemetry (Data Sciences International, St. Paul, Minn.). Details of the telemetry system are described in Gordon, C. J., 24-hour control of body temperature in the rat: I. Integration of behavioral and autonomic effectors, Am. J. Physiol. 267, […]-[…], 1994. Briefly, rats were anesthetized with sodium pentobarbital (50 mg/kg; intraperitoneally) and an incision was made for the implantation of the transmitter (TAIOTA-F40) into the abdominal cavity. The abdominal muscle was sutured and the skin was closed with wound clips. […] The behavioral thermoregulatory response to NT77 was assessed by measuring selected ambient temperature (Selected Ta) of the unrestrained rats when housed in a temperature gradient (Gordon, C. J., 24-hour control of body temperature in the rat: I. Integration of behavioral and autonomic effectors, Am. J. Physiol. 267, […]-[…], 1994). Rats were placed in a temperature gradient and allowed to behaviorally select from a range of ambient temperatures (Ta) while core temperature (Tc) was monitored by radiotelemetry. Selected Ta, core temperature (Tc), and motor activity were monitored at 1 minute intervals. […] Selected Ta was measured by photocells positioned at 10 cm intervals that detected the position of the rat in the gradient and automatically compared the position to the air temperature measured by thermocouples placed immediately outside the wire-mesh cage. Motor activity was calculated by measuring the change in position of the rat in the gradient at 1 minute intervals. […] The behavioral and core temperature data were recorded at 1 minute intervals throughout the experiment. […]"}, "[3]": {"tested_on": "Sprague-Dawley rats resuscitated from asphyxial cardiac arrest", "assay": "Morris Water Maze on days 10-14 after ROSC (NT69L)", "description": "On days 10-14 after ROSC, the rats were accessed for performance in a Morris Water Maze (MWM). Evaluation was begun on day 10 to ensure that there was complete recovery from anesthesia and the surgical procedures based on prior pilot studies (data not shown). A six foot diameter round pool was filled with water (26° C.) to a depth of 20 cm, 1 cm above an 11-cm diameter clear glass escape platform. The escape platform was invisible to a swimming rat and was placed in the northeast quadrant of the pool. The pool had large visible and distinct geometric shapes placed in a north, south, east, and west distribution on the side of the pool wall so that a swimming rat could easily visualize the orientation markers. The pool was situated in a room with black walls and ceiling to minimize external distractions for the rats. Rats were initially placed in the pool (without the escape platform) for 2 minutes to become acclimatized to the new swimming environment. The rats were then placed on the escape platform for 30 seconds to allow for self orientation in the pool. Next, the rats were randomly placed in each of the four geographic outer regions of the pool and their travel path, swim speed, and time required to locate the hidden platform (latency time) were recorded. Rats performed four swim trials on each day with a maximum swim time of 2 minutes, at which time the trial was terminated if a rat was unable to locate the platform. A 3-minute rest period was provided between trials. In addition to the rats that sustained cardiac arrest (n=16), nine sham rats were surgically instrumented and allowed to recover for ten days before being assessed for performance in the MWM.\n(§1) Physiological variables (arterial blood gas, glucose, and MAP) between groups were compared by a one-way analysis of variance (ANOVA). All values were reported as means±standard deviation unless otherwise stated. A one-way analysis of variance (ANOVA) was used to determine the between-group differences in latency time for finding the platform during the MWM on day 14. When an overall significant difference was found, a Tukey post-hoc analysis was used to determine specific between-group differences. Performances on the MWM (learning curve) between days 10 and 14 were compared between groups by a repeated measure ANOVA. Neurological deficit scores between groups were assessed by Kruskal-Wallis analysis. For all analyses, alpha was set at a p<0.05 level of significance."}, "[4]": {"tested_on": "free-roaming, unanesthetized rats", "assay": "Pilot: brain temperature of free-roaming unanesthetized rats without cardiac arrest given NT69L", "details": "no cardiac arrest, room temperature 23° C., i.v.", "description": "In separate pilot experiments, four rats were instrumented for placement of temperature probes and intravenous catheters as described above. Three days after recovery from anesthesia, NT69L was administered intravenously to two free-roaming, unanesthetized rats at room temperature (23° C.). In the same environment and at the same time, two rats were given a similar volume of saline for comparison."}, "[5]": {"tested_on": "Sprague-Dawley rats resuscitated from asphyxial cardiac arrest", "description": "Sixteen male Sprague-Dawley rats (Harlan; Madison, Wis.) weighing 300±50 grams were randomized to a control group (saline) or treatment group (NT69L) after resuscitation from asphyxial cardiac arrest. The outcome model of asphyxial cardiac arrest in rats was used to induce the cerebral insult in all rats (Katz et al., Outcome model of asphyxial cardiac arrest in rats, J. Cereb. Blood Flow Metab., 1995, 15:1032-1039). Under titrated inhaled isoflurane anesthesia, brain telemetric probes (Mini-Mitter; Sunriver, Oreg.) were implanted three days before the cerebral insult. […] On the day of the cerebral insult, rats were again anesthetized with inhaled isoflurane anesthesia, intubated, and mechanically ventilated. A tail artery was cannulated for continuous blood pressure monitoring and blood gas analysis, while the jugular vein was cannulated for intravenous drug administration. Intravenous vecuronium (2 mg/kg intravenous) and cessation of mechanical ventilation were used to induce apneic asphyxia. Asphyxia led to cardiac arrest (i.e., mean arterial pressure (MAP)<10 mm Hg and a pulse pressure of 0 mm Hg) within approximately 3 minutes; the cardiac arrest was maintained until resuscitation. Eight minutes after asphyxia, the rats were resuscitated with mechanical ventilation (100% oxygen), 0.005 mg/kg intravenous epinephrine, and chest compressions until a mean arterial pressure of 60 mm Hg was produced and maintained by a spontaneously beating heart for more than 10 seconds. Immediately after restoration of spontaneous circulation (ROSC), the rats were placed in an incubator that maintained an ambient temperature of 31.6° C. […] Ten minutes after ROSC, NT69L (0.5 mg/kg) […] or saline 3 mL/kg was administered intravenously. The ventilator was adjusted to normalize temperature-corrected arterial carbon dioxide before the insult and for two hours after ROSC. Two hours after ROSC, spontaneously breathing rats were extubated and maintained in the incubator for 24 hours. Rats were handled daily after the experiment and had free access to food and water.\nas §1"}, "[6]": {"tested_on": "Sprague-Dawley rats resuscitated from asphyxial cardiac arrest", "assay": "Neurological deficit score 14 days after ROSC (NT69L)", "description": "A final neurological deficit score (NDS) was performed 14 days after ROSC by an evaluator blinded to the insult and therapeutic intervention. Rats were tested for coordination (balance beam walk placing test, depth perception, righting reflex) and for motor and sensory function as described in Katz et al., Outcome model of asphyxial cardiac arrest in rats, J. Cereb. Blood Flow Metab., 1995, 15:1032-1039. The NDS includes a range from 0 (indicating normal) to 100 (indicating brain dead).\nas §1"}, "[7]": {"details": "one NT69L group rat, day 14 after resuscitation"}, "[8]": {"details": "NT69L 0.5 mg/kg i.v., ambient 31.6° C."}, "[9]": {"details": "intravenously after resuscitation from cardiac arrest"}}, "note": "Where a SMILES comes first, the peptide text is derived from it. Where no end group is shown, it is not given here. [ ]: non-standard residue; d: D form. Ala(indol-4-yl) = N[C@@H](Cc1cccc2[nH]ccc12)C(=O)O; NMeR = CN[C@@H](CCCNC(=N)N)C(=O)O; Tle = CC(C)(C)[C@H](N)C(=O)O; dOrn = NCCC[C@@H](N)C(=O)O; neo‑Trp = not defined here"}
{"compound": "CC(C)C[C@H](NC(=O)[C@@H](NC(=O)[C@H](Cc1cccc2[nH]ccc12)NC(=O)[C@@H]1CCCN1C(=O)[C@@H](CCCN)NC(=O)[C@@H](N)CCCNC(=N)N)C(C)(C)C)C(=O)O", "note": "[NT77] (H-R[dOrn]P[Ala(indol-4-yl)][Tle]L-OH)", "values": [{"measurement": "effect on motor activity in the calorimeter", "setting": "Sprague-Dawley rats [1]", "value": "no discernable effect"}, {"measurement": "effect on motor activity", "setting": "Sprague-Dawley rats [2]; 5.0 mg/kg i.p., temperature gradient", "value": "no effect"}, {"measurement": "core temperatures and selected Ta's during the night after treatment", "setting": "Sprague-Dawley rats [2]; 5.0 mg/kg i.p., data not shown", "value": "normal"}, {"measurement": "loss of initial body weight", "setting": "Sprague-Dawley rats [2]; day after treatment, saline 1.6%", "value": 2.4, "unit": "%"}]}
{"compound": "NT69L: neurotensin analog, SEQ ID NO: 16, positions 8-13: N-methyl-Arg, L-Lys, L-Pro, L-neo-Trp, tert-Leu, L-Leu ([NMeR]KP[neo‑Trp][Tle]L; reading uncertain)", "values": [{"measurement": "latency time in Morris Water Maze", "setting": "[3]; fourteen days after ROSC, control 45±26, sham 10±3", "value": "22 ± 8", "unit": "s"}, {"measurement": "distance traveled, sample path of one rat (FIG. 1)", "setting": "[3]; [7]", "value": 225, "unit": "cm"}, {"measurement": "latency time, sample path of one rat (FIG. 1)", "setting": "[3]; [7]", "value": 9, "unit": "s"}, {"measurement": "rates of change of latency time over days 10-14 versus control", "setting": "[3]; p=0.15 repeated-measures ANOVA", "value": "no difference"}, {"measurement": "swimming speed during MWM testing", "setting": "[3]; sham 27±2, control 25±1", "value": "26 ± 1", "unit": "cm/s"}, {"measurement": "brain temperature versus saline rats", "setting": "[4]", "value": "drop in brain temperature"}, {"measurement": "duration of mild hypothermia (mean)", "setting": "[5]; NT69L 0.5 mg/kg i.v.", "value": "300 ± 100", "unit": "min"}, {"measurement": "duration of mild hypothermia (median)", "setting": "[5]; NT69L 0.5 mg/kg i.v.", "value": 367, "unit": "min"}, {"measurement": "duration of mild hypothermia (range)", "setting": "[5]; NT69L 0.5 mg/kg i.v.", "value": "20 to 400", "unit": "min"}, {"measurement": "time until brain temperature dropped below 35° C. after administration (mean)", "setting": "[5]; [8]", "value": "13+3 minutes"}, {"measurement": "time until brain temperature dropped below 35° C. after administration (range)", "setting": "[5]; [8]", "value": "8 to 15", "unit": "min"}, {"measurement": "rats with ROSC that survived 14 days", "setting": "[5]; each group, same as control", "value": "Seven out of eight"}, {"measurement": "hypothermia produced (conclusion)", "setting": "[5]; [9]", "value": "rapid and prolonged mild hypothermia"}, {"measurement": "hypotension produced", "setting": "[5]; rat, in vivo", "value": "mild and transient"}, {"measurement": "neurological deficit score (NDS)", "setting": "[6]; 14 days after ROSC, 0 normal to 100 brain dead, control 30±10", "value": "3±3"}, {"measurement": "neurological outcome (conclusion)", "setting": "[6]; [9]", "value": "improved neurological outcome"}]}
